Like-named read-outs stand apart in the source and are kept apart here.

One test concerns the target ROCK (Homo sapiens, UniProt Q13464). The test can be described thus: ROCK radioactive assay ("33P"). In kind it is biochemical. The source says: If more than one value of Ki has been determined, the average Ki is indicated. If no value is indicated, then the Ki was not determined.
The next test addresses PKA (Homo sapiens, UniProt P17612). The test can be described thus: PKA inhibition assay, coupled enzyme. In kind it is biochemical. The conditions noted are these: average Ki if more than one determined. The procedure: Compounds were screened for their ability to inhibit PKA using a standard coupled enzyme assay (Fox et al., Protein Sci, 1998, 7, 2249). Assays were carried out in a mixture of 100 mM HEPES (pH 7.5), 10 mM MgCl2, 25 mM NaCl, 1 mM DTT and 3% DMSO. Final substrate concentrations in the assay were 50 μM ATP (Sigma Chemicals) and 80 μM peptide (Kemptide, American Peptide, Sunnyvale, Calif.). Assays were carried out at 30° C. and 18 nM PKA. Final concentrations of the components of the coupled enzyme system were 2.5 mM phosphoenolpyruvate, 300 μM NADH, 30 μg/ml pyruvate kinase and 10 μg/ml lactate dehydrogenase.
An assay stock buffer solution was prepared containing all of the reagents listed above, with the exception of ATP, and the test compound of the present invention. […] The plate was preincubated for 10 minutes at 30° C. and the reaction initiated by addition of 5 μl of ATP (final concentration 50 μM). Initial reaction rates were determined with a Molecular Devices SpectraMax Plus plate reader over a 15 minute time course. IC50 and Ki data were calculated from non-linear regression analysis using the Prism software package (GraphPad Prism version 3.0a for Macintosh, GraphPad Software, San Diego Calif., USA).

Setting [1] is: radioactive assay, average Ki if more than one determined, read-out: ROCK 33P Ki.

ROCK, sequence (Q13464 whole entry): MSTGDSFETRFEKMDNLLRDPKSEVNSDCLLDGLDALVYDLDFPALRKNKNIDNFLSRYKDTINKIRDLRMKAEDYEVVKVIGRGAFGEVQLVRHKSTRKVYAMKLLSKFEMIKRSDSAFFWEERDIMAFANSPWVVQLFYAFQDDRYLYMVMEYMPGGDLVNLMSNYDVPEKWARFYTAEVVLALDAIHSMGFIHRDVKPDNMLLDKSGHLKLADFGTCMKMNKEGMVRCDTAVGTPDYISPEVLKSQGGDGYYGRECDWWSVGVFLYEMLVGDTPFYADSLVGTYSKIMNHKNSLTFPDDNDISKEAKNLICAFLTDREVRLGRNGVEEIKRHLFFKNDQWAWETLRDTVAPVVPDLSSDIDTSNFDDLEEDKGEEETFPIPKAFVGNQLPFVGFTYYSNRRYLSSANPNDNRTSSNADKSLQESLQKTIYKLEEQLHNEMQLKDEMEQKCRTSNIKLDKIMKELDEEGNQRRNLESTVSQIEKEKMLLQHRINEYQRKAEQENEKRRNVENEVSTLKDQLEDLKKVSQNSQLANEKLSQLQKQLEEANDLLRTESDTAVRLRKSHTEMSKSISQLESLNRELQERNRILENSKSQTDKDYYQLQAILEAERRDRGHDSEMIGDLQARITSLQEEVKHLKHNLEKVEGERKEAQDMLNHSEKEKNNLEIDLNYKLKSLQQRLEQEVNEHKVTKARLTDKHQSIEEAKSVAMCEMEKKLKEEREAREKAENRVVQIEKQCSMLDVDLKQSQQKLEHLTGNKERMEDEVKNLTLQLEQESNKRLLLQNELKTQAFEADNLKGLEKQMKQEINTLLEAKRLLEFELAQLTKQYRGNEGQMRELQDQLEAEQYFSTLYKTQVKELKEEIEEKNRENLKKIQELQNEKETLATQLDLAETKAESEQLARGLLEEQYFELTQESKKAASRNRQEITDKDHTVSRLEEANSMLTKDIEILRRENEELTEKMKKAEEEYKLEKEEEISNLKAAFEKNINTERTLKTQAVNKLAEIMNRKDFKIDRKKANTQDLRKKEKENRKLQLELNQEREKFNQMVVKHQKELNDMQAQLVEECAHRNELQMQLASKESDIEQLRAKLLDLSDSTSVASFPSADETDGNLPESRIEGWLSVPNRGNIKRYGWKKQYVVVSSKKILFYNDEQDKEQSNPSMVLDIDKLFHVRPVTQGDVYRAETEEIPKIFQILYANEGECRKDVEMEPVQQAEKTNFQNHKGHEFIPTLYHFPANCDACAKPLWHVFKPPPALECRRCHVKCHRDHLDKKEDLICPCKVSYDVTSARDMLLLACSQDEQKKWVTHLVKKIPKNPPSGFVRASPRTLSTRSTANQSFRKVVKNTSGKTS

The term Ki denotes the equilibrium dissociation constant of an inhibitor or competing ligand from its target. Take `C[C@@H](CO)NC(=O)c1nc(-c2c[nH]c3ncccc23)cs1` [II-182]: the Ki is < 500 nM at ROCK (setting [1]) and 500 to 5000 nM on PKA.
Taken in the same sequence, the figures for `CC(C)C(CO)NC(=O)c1nc(-c2c[nH]c3ncccc23)cs1` (stereo not drawn) [II-183] were < 500 nM and 500 to 5000 nM.
With `O=C(N[C@H](CO)c1ccccc1)c1nc(-c2c[nH]c3ncccc23)cs1` [II-184], the inhibitory constant (Ki) at ROCK (setting [1]) and at PKA was < 500 nM in each case.
In the case of `O=C(N[C@@H](CO)c1ccccc1)c1nc(-c2c[nH]c3ncccc23)cs1` [II-185], the Ki on ROCK (setting [1]) is < 500 nM; on PKA it was 500 to 5000 nM.
In the same order, the values of `O=C(NC1CCN(Cc2ccccc2)C1)c1nc(-c2c[nH]c3ncccc23)cs1` (stereo not drawn) [II-186] are < 500 nM and 500 to 5000 nM.
Taken in the same sequence, the figures for `O=C(NC1CCNCC1)c1nc(-c2c[nH]c3ncccc23)cs1` [II-187] were < 500 nM and < 500 nM.
`O=C(CNCc1ccccc1)Nc1nc(-c2c[nH]c3ncccc23)cs1` [II-188]: the Ki on ROCK (setting [1]) and at PKA was < 500 nM each time.
Consider `NCCC(C(=O)Nc1nc(-c2c[nH]c3ncccc23)cs1)c1ccccc1` (stereo not drawn) [II-189], for which the Ki on ROCK (setting [1]) and at PKA was < 500 nM each time.
As to `NCCC(C(=O)Nc1nc(-c2c[nH]c3ncccc23)cs1)c1ccc(F)cc1` (stereo not drawn) [II-190], the inhibition constant (Ki) on ROCK (setting [1]) and at PKA was < 500 nM throughout.
`NCCC(C(=O)Nc1nc(-c2c[nH]c3ncccc23)cs1)c1ccc(F)cc1F` (stereo not drawn) [II-191]: the inhibition constant (Ki) on ROCK (setting [1]) and on PKA was < 500 nM in each case.
On to `NCCC(C(=O)Nc1nc(-c2c[nH]c3ncccc23)cs1)c1ccccc1Cl` (stereo not drawn) [II-192], for which the Ki at ROCK (setting [1]) and at PKA was < 500 nM each time.
With `CN(C)S(=O)(=O)Nc1cccc(CC(=O)Nc2nc(-c3c[nH]c4ncccc34)cs2)c1` [II-193], the Ki on ROCK (setting [1]) and on PKA was < 500 nM in each case.
For the compound `NCC(C(=O)Nc1nc(-c2c[nH]c3ncccc23)cs1)c1ccccc1Cl` (stereo not drawn) [II-194], the inhibition constant (Ki) on ROCK (setting [1]) and at PKA was < 500 nM in each case.
As to `NCC(C(=O)Nc1nc(-c2c[nH]c3ncccc23)cs1)c1cccc(Cl)c1Cl` (stereo not drawn) [II-195], the Ki on ROCK (setting [1]) and at PKA was < 500 nM throughout.
In the case of `NCC(C(=O)Nc1nc(-c2c[nH]c3ncccc23)cs1)c1ccc(F)cc1Cl` (stereo not drawn) [II-196], the inhibitory constant (Ki) at ROCK (setting [1]) and on PKA was < 500 nM in each case.
As to `c1cnc2[nH]cc(-c3csc(NCCCN4CCOCC4)n3)c2c1` [II-197], the Ki at ROCK (setting [1]) and on PKA was 500 to 5000 nM each time.
On to `CN1CCN(CCCNc2nc(-c3c[nH]c4ncccc34)cs2)CC1` [II-198], for which the inhibitory constant (Ki) at ROCK (setting [1]) and on PKA was 500 to 5000 nM each time.
As to `c1coc(CNc2nc(-c3c[nH]c4ncccc34)cs2)c1` [II-199], the Ki is < 500 nM on ROCK (setting [1]) and 500 to 5000 nM at PKA.
Consider `c1cnc2[nH]cc(-c3csc(NCC4CCCO4)n3)c2c1` (stereo not drawn) [II-200], for which the inhibition constant (Ki) on ROCK (setting [1]) and at PKA was 500 to 5000 nM each time.
Regarding `CN1CCN(CCCN(C(=O)Cc2ccccc2)c2nc(-c3c[nH]c4ncccc34)cs2)CC1` [II-201], the Ki at ROCK (setting [1]) and on PKA was < 500 nM each time.
Take `COc1cccc(CC(=O)N(CCCN2CCN(C)CC2)c2nc(-c3c[nH]c4ncccc34)cs2)c1` [II-202]: the Ki at ROCK (setting [1]) and on PKA was < 500 nM throughout.
Regarding `CN1CCN(CCCN(C(=O)Cc2cccc(NS(C)(=O)=O)c2)c2nc(-c3c[nH]c4ncccc34)cs2)CC1` [II-203], the inhibition constant Ki on ROCK (setting [1]) and at PKA was < 500 nM each time.
Turning to `CC(=O)N(CCCN1CCN(C)CC1)c1nc(-c2c[nH]c3ncccc23)cs1` [II-204], the Ki at ROCK (setting [1]) is < 500 nM; at PKA, 500 to 5000 nM.
In the same order, the values of `O=C(Cc1cccnc1)Nc1nc(-c2c[nH]c3ncccc23)cs1` [II-205] are < 500 nM and < 500 nM.
For `O=C(Cc1cccnc1)Nc1nc(-c2c[nH]c3ncc(F)cc23)cs1` [II-206], the Ki at ROCK (setting [1]) and on PKA was < 500 nM throughout.
With `O=C(Nc1nc(-c2c[nH]c3ncccc23)cs1)[C@@H](O)c1ccccc1` [II-207], the Ki on ROCK (setting [1]) and on PKA was < 500 nM in each case.
In the case of `COc1cccc(C(O)C(=O)Nc2nc(-c3c[nH]c4ncccc34)cs2)c1` (stereo not drawn) [II-208], the Ki on ROCK (setting [1]) and at PKA was < 500 nM each time.
As for `O=C(Nc1nc(-c2c[nH]c3ncccc23)cs1)C(O)c1ccc(F)cc1F` (stereo not drawn) [II-209], the inhibition constant Ki on ROCK (setting [1]) and at PKA was < 500 nM each time.
For the compound `O=C(Nc1nc(-c2c[nH]c3ncccc23)cs1)[C@H](O)c1ccccc1` [II-210], the Ki on ROCK (setting [1]) and on PKA was < 500 nM in each case.
In the case of `CS(=O)(=O)Nc1cccc(C(O)C(=O)Nc2nc(-c3c[nH]c4ncccc34)cs2)c1` (stereo not drawn) [II-211], the Ki at ROCK (setting [1]) and at PKA was < 500 nM in each case.
As for `Nc1cccc(C(O)C(=O)Nc2nc(-c3c[nH]c4ncccc34)cs2)c1` (stereo not drawn) [II-212], the inhibition constant Ki at ROCK (setting [1]) and on PKA was < 500 nM in each case.
In the case of `NC(C(=O)Nc1nc(-c2c[nH]c3ncccc23)cs1)c1ccc(F)cc1` (stereo not drawn) [II-213], the inhibition constant Ki at ROCK (setting [1]) and at PKA was < 500 nM each time.
Turning to `N[C@@H](C(=O)Nc1nc(-c2c[nH]c3ncccc23)cs1)c1ccccc1` [II-214], the Ki at ROCK (setting [1]) and on PKA was < 500 nM each time.
As for `O=C(Cc1ccccn1)Nc1nc(-c2c[nH]c3ncccc23)cs1` [II-215], the Ki on ROCK (setting [1]) and at PKA was < 500 nM in each case.
Regarding `CS(=O)(=O)Nc1cccc(CC(=O)Nc2nc(-c3c[nH]c4c3ccc[n+]4[O-])cs2)c1` [II-216], the results for the inhibitory constant (Ki) on ROCK and at PKA were < 500 nM and 500 to 5000 nM, respectively.
Consider `CS(=O)(=O)NCC(=O)Nc1nc(-c2c[nH]c3ncccc23)cs1` [II-217], for which the Ki at ROCK (setting [1]) and at PKA was < 500 nM throughout.
For `CCS(=O)(=O)NCC(=O)Nc1nc(-c2c[nH]c3ncccc23)cs1` [II-218], the Ki at ROCK (setting [1]) and on PKA was < 500 nM in each case.
For the compound `CS(=O)(=O)Nc1cccc(C(N)C(=O)Nc2nc(-c3c[nH]c4ncccc34)cs2)c1` (stereo not drawn) [II-219], the Ki on ROCK (setting [1]) and at PKA was < 500 nM throughout.
As for `CC(C)S(=O)(=O)NCC(=O)Nc1nc(-c2c[nH]c3ncccc23)cs1` [II-220], the Ki on ROCK (setting [1]) and on PKA was < 500 nM each time.
`CCS(=O)(=O)C(C)C(=O)Nc1nc(-c2c[nH]c3ncccc23)cs1` (stereo not drawn) [II-221]: the Ki at ROCK (setting [1]) and at PKA was < 500 nM throughout.
On to `C[C@H](NS(C)(=O)=O)C(=O)Nc1nc(-c2c[nH]c3ncccc23)cs1` [II-222], for which the Ki on ROCK (setting [1]) and on PKA was < 500 nM in each case.
On to `CC(C)[C@H](NS(C)(=O)=O)C(=O)Nc1nc(-c2c[nH]c3ncccc23)cs1` [II-223], for which the Ki on ROCK (setting [1]) and at PKA was < 500 nM throughout.
Consider `CCCC(C(=O)Nc1nc(-c2c[nH]c3ncccc23)cs1)S(C)(=O)=O` (stereo not drawn) [II-224], for which the Ki is < 500 nM at ROCK (setting [1]) and 500 to 5000 nM on PKA.
Taken in the same sequence, the figures for `CCCC(C(=O)Nc1nc(-c2c[nH]c3ncccc23)cs1)S(=O)(=O)CC` (stereo not drawn) [II-225] were < 500 nM and 500 to 5000 nM.
Taken in the same sequence, the figures for `CC(C(=O)Nc1nc(-c2c[nH]c3ncccc23)cs1)S(C)(=O)=O` (stereo not drawn) [II-226] were < 500 nM and < 500 nM.
In the same order, the values of `CC(C)[C@@H](NS(C)(=O)=O)C(=O)Nc1nc(-c2c[nH]c3ncccc23)cs1` [II-227] are < 500 nM and < 500 nM.
For `C[C@@H](NS(C)(=O)=O)C(=O)Nc1nc(-c2c[nH]c3ncccc23)cs1` [II-228], the Ki on ROCK (setting [1]) and on PKA was < 500 nM throughout.
For `CS(=O)(=O)N1CCC[C@H]1C(=O)Nc1nc(-c2c[nH]c3ncccc23)cs1` [II-229], the Ki at ROCK (setting [1]) and at PKA was < 500 nM throughout.
As for `CS(=O)(=O)N1CCC[C@@H]1C(=O)Nc1nc(-c2c[nH]c3ncccc23)cs1` [II-230], the Ki at ROCK (setting [1]) and at PKA was < 500 nM in each case.
`CN(CC(=O)Nc1nc(-c2c[nH]c3ncccc23)cs1)S(C)(=O)=O` [II-231]: the Ki on ROCK (setting [1]) and on PKA was < 500 nM throughout.
With `CS(=O)(=O)N[C@H](COCc1ccccc1)C(=O)Nc1nc(-c2c[nH]c3ncccc23)cs1` [II-232], the Ki on ROCK (setting [1]) and at PKA was < 500 nM each time.
Turning to `CS(=O)(=O)N[C@@H](COCc1ccccc1)C(=O)Nc1nc(-c2c[nH]c3ncccc23)cs1` [II-233], the inhibitory constant (Ki) at ROCK (setting [1]) and at PKA was < 500 nM each time.
`CCNC(=O)Nc1nc(-c2c[nH]c3ncccc23)cs1` [II-234]: the inhibition constant Ki on ROCK (setting [1]) and at PKA was 500 to 5000 nM in each case.
In the case of `O=C(NCCO)Nc1nc(-c2c[nH]c3ncccc23)cs1` [II-235], the Ki on ROCK (setting [1]) and on PKA was 500 to 5000 nM each time.
On to `O=C(Nc1nc(-c2c[nH]c3ncccc23)cs1)N1CCOCC1` [II-236], for which the inhibitory constant (Ki) at ROCK (setting [1]) and at PKA was 500 to 5000 nM in each case.
Regarding `CN1CCN(C(=O)Nc2nc(-c3c[nH]c4ncccc34)cs2)CC1` [II-237], the inhibition constant (Ki) at ROCK (setting [1]) and at PKA was 500 to 5000 nM each time.
Consider `O=C(Nc1nc(-c2c[nH]c3ncccc23)cs1)N1CCCCC1` [II-238], for which the inhibition constant Ki on ROCK (setting [1]) and at PKA was 500 to 5000 nM each time.

The values are drawn from US7514448B2, “Azaindoles useful as inhibitors of rock and other protein kinases” (Vertex Pharmaceuticals Incorporated, priority 2004, dated 2009).
